Experimental data reported in PubChem BioAssay AID328 (DTP/NCI, 2004).
Inconclusive results and toxic doses are left out. The calls were made as follows: active = survival T/C of 150% or more; inactive = T/C below 125% in these data.

Test system: BDF1 mice, P388 leukemia ip, median survival T/C
Test: NCI In Vivo Anticancer Drug Screen. Data for tumor model P388 Leukemia (intraperitoneal) in B6D2F1 (BDF1) mice
Settings: endpoint: median survival time, higher = longer survival
Outline: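 In tumour-bearing mice, survival after compound treatment is set against the vehicle group and given as a quotient.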

[1] = dose: 100.0 mg/kg/injection, schedule: Q04DX003 (ip), vehicle: saline with Tween-80
[2] = dose: 200.0 mg/kg/injection, schedule: Q04DX003 (ip), vehicle: saline with Tween-80
[3] = dose: 400.0 mg/kg/injection, schedule: Q04DX003 (ip), vehicle: saline with Tween-80
[4] = dose: 50.0 mg/kg/injection, schedule: Q01DX009 (ip), vehicle: saline with Tween-80
[5] = dose: 100.0 mg/kg/injection, schedule: Q01DX009 (ip), vehicle: saline with Tween-80
[6] = dose: 200.0 mg/kg/injection, schedule: Q01DX009 (ip), vehicle: saline with Tween-80
[7] = dose: 100.0 mg/kg/injection, schedule: Q04DX003 (ip), vehicle: Klucel (hydroxypropylcellulose) (HPC)
[8] = dose: 200.0 mg/kg/injection, schedule: Q04DX003 (ip), vehicle: Klucel (hydroxypropylcellulose) (HPC)
[9] = dose: 50.0 mg/kg/injection, schedule: Q04DX003 (ip), vehicle: Klucel (hydroxypropylcellulose) (HPC)

Measured: T/C

CCC(C)(O)C#CC(C)(O)CC (configuration not stated)
inactive: dose: 100.0 mg/kg/injection, schedule: Q04DX003 (ip), vehicle: saline 91 % of control | dose: 200.0 mg/kg/injection, schedule: Q04DX003 (ip), vehicle: saline 91 % of control | dose: 400.0 mg/kg/injection, schedule: Q04DX003 (ip), vehicle: saline 87 % of control

O=C1C=CC(=O)N1CO
inactive: dose: 0.62 mg/kg/injection, schedule: Q04DX003 (ip), vehicle: saline 100 % of control | dose: 1.25 mg/kg/injection, schedule: Q01DX009 (ip), vehicle: saline 109 % of control | dose: 1.25 mg/kg/injection, schedule: Q04DX003 (ip), vehicle: saline 95 % of control | dose: 2.5 mg/kg/injection, schedule: Q01DX009 (ip), vehicle: saline 118 % of control | dose: 2.5 mg/kg/injection, schedule: Q04DX003 (ip), vehicle: saline 90 % of control | dose: 3.6 mg/kg/injection, schedule: Q04DX003 (ip), vehicle: saline 100 % of control | dose: 5.6 mg/kg/injection, schedule: Q04DX003 (ip), vehicle: saline 104 % of control | dose: 8.4 mg/kg/injection, schedule: Q04DX003 (ip), vehicle: saline 104 % of control

CCN(CC)CCCC(C)Nc1ccnc2cc(Cl)ccc12 (configuration not stated)
inactive: dose: 6.2 mg/kg/injection, schedule: Q01DX010 (ip), vehicle: saline 100 % of control | dose: 12.5 mg/kg/injection, schedule: Q01DX009 (ip), vehicle: saline 113 % of control | dose: 12.5 mg/kg/injection, schedule: Q01DX010 (ip), vehicle: saline 90 % of control | dose: 25.0 mg/kg/injection, schedule: Q01DX009 (ip), vehicle: saline 109 % of control | dose: 25.0 mg/kg/injection, schedule: Q01DX010 (ip), vehicle: saline 95 % of control | dose: 50.0 mg/kg/injection, schedule: Q01DX009 (ip), vehicle: saline 109 % of control | dose: 50.0 mg/kg/injection, schedule: Q01DX010 (ip), vehicle: saline 100 % of control | dose: 75.0 mg/kg/injection, schedule: Q01DX009 (ip), vehicle: saline 104 % of control

Cc1cccc(NC(=O)c2ccccc2Cl)c1C
inactive: [1] 109 % of control | [2] 90 % of control | [3] 90 % of control

NCCCn1c2ccccc2c2cnccc21
inactive: dose: 5.0 mg/kg/injection, schedule: Q01DX009 (ip), vehicle: water 105 % of control | dose: 10.0 mg/kg/injection, schedule: Q01DX009 (ip), vehicle: water 94 % of control | dose: 20.0 mg/kg/injection, schedule: Q01DX009 (ip), vehicle: water 119 % of control | dose: 25.0 mg/kg/injection, schedule: Q01DX009 (ip), vehicle: water 91 % of control | dose: 25.0 mg/kg/injection, schedule: Q04DX003 (ip), vehicle: water 103 % of control | dose: 40.0 mg/kg/injection, schedule: Q01DX009 (ip), vehicle: water 119 % of control | dose: 50.0 mg/kg/injection, schedule: Q04DX003 (ip), vehicle: water 107 % of control | dose: 100.0 mg/kg/injection, schedule: Q04DX003 (ip), vehicle: water 99 % of control

C=CCNC(=O)Cn1nnc(-c2ccccc2)n1
inactive: [4] 86 % of control | [5] 101 % of control | [6] 107 % of control

C=CCSc1nc(N)nc2nc[nH]c12
inactive: dose: 100.0 mg/kg/injection, schedule: Q01DX009 (ip), vehicle: saline sonified 110 % of control | [1] 104 % of control | [2] 100 % of control | [3] 109 % of control

N[C@H](Cc1c[nH]c2ccccc12)C(=O)O
inactive: dose: 100.0 mg/kg/injection, schedule: Q01DX010 (ip), vehicle: saline 92 % of control | dose: 200.0 mg/kg/injection, schedule: Q01DX010 (ip), vehicle: saline 96 % of control | dose: 400.0 mg/kg/injection, schedule: Q01DX010 (ip), vehicle: saline 96 % of control | dose: 800.0 mg/kg/injection, schedule: Q01DX010 (ip), vehicle: saline 110 % of control

Oc1c(Cl)cc(Cl)cc1C=Nc1cc(C(F)(F)F)ccc1Cl
inactive: [4] 87 % of control | [5] 89 % of control | [6] 99 % of control

COc1cc([N+](=O)[O-])ccc1NC(=O)NCc1ccccc1
inactive: [4] 95 % of control | [5] 98 % of control | [6] 98 % of control | dose: 400.0 mg/kg/injection, schedule: Q01DX009 (ip), vehicle: saline with Tween-80 104 % of control

CCN(CC)S(=O)(=O)c1ccc(C(=O)O)cc1
inactive: [7] 100 % of control | [8] 104 % of control | dose: 400.0 mg/kg/injection, schedule: Q04DX003 (ip), vehicle: Klucel (hydroxypropylcellulose) (HPC) 100 % of control

O=C(O)c1ccccc1C(=O)Nc1ccc([N+](=O)[O-])cc1Cl
inactive: [9] 100 % of control | [7] 100 % of control | [8] 95 % of control

CCC(O)(CC(=O)O)c1ccccc1 (configuration not stated)
inactive: [1] 95 % of control | [2] 90 % of control | [3] 90 % of control

Nc1nc(N)c2nc(/C=C/c3ccc4c(c3)OCO4)cnc2n1
inactive: [4] 88 % of control | [5] 88 % of control | [6] 88 % of control

Cc1cccc(N=P(c2ccccc2)(c2ccccc2)c2ccccc2)c1
inactive: dose: 50.0 mg/kg/injection, schedule: Q01DX009 (ip), vehicle: Klucel (hydroxypropylcellulose) (HPC) 109 % of control | [9] 109 % of control | dose: 100.0 mg/kg/injection, schedule: Q01DX009 (ip), vehicle: Klucel (hydroxypropylcellulose) (HPC) 118 % of control | [7] 100 % of control | dose: 133.0 mg/kg/injection, schedule: Q01DX009 (ip), vehicle: Klucel (hydroxypropylcellulose) (HPC) 117 % of control | dose: 200.0 mg/kg/injection, schedule: Q01DX009 (ip), vehicle: Klucel (hydroxypropylcellulose) (HPC) 108 % of control | [8] 95 % of control
